Assay results: the supplement of paper PMC8671470

Tests used:
Experiment in all cases: area under dose-response curve (viability, 1 nM-10 uM) (fraction (0-1)); higher = more sensitive
Conditions in all cases: 72 h
[1] = test system: myeloid leukemia patient primary cells Pat.11
Procedure: (§1)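 AUC (0–1, higher = more sensitive) of the 5-point dose–response (1 nM–10 µM, 72 h, CellTiter-Glo) in primary AML/CML patient mononuclear cells. 0.030103 is the floor for inactive compounds.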

[2] = test system: myeloid leukemia patient primary cells Pat.12
Procedure: as §1

[3] = test system: myeloid leukemia patient primary cells Pat.9
Procedure: as §1

[4] = test system: myeloid leukemia patient primary cells Pat.13
Procedure: as §1

[5] = test system: myeloid leukemia patient primary cells Pat.6
Procedure: as §1

[6] = test system: myeloid leukemia patient primary cells Pat.8
Procedure: as §1

[7] = test system: myeloid leukemia patient primary cells Pat.7
Procedure: as §1

[8] = test system: myeloid leukemia patient primary cells Pat.14
Procedure: as §1

[9] = test system: myeloid leukemia patient primary cells Pat.15
Procedure: as §1

[10] = test system: myeloid leukemia patient primary cells Pat.1
Procedure: as §1

[11] = test system: myeloid leukemia patient primary cells Pat.10
Procedure: as §1

[12] = test system: myeloid leukemia patient primary cells Pat.2
Procedure: as §1

[13] = test system: myeloid leukemia patient primary cells Pat.4
Procedure: as §1

[14] = test system: myeloid leukemia patient primary cells Pat.3
Procedure: as §1

[15] = test system: myeloid leukemia patient primary cells Pat.5
Procedure: as §1

Structure (SMILES)	area under dose-response curve [1]	area under dose-response curve [2]	area under dose-response curve [3]	area under dose-response curve [4]	area under dose-response curve [5]	area under dose-response curve [6]	area under dose-response curve [7]	area under dose-response curve [8]	area under dose-response curve [9]	area under dose-response curve [10]	area under dose-response curve [11]	area under dose-response curve [12]	area under dose-response curve [13]	area under dose-response curve [14]	area under dose-response curve [15]
CCOC(=O)N1c2ccc(C(F)(F)F)cc2[C@@H](N(Cc2cc(C(F)(F)F)cc(C(F)(F)F)c2)C(=O)OC)C[C@H]1CC [Torcetrapib]	< 0.0301	< 0.0301	0.239	0.0668	0.0345	< 0.0301	0.197	0.0394	< 0.0301	< 0.0301	0.212	< 0.0301	< 0.0301	0.0719	
CC(Cc1ccc(O)c(O)c1)C(C)Cc1ccc(O)c(O)c1 (configuration not stated) [Masoprocol]	< 0.0301	0.0847	0.3	0.0768	0.15	0.186	0.294		0.111	0.075	< 0.0301		0.119	0.299	< 0.0301
Nc1ccn([C@@H]2O[C@H](CO)[C@@H](O)[C@@H]2O)c(=O)n1 [Cytarabine]	0.0784	0.0325	0.719	0.188	0.0602	0.0847	0.418	0.152	0.109		0.205	0.077	0.142	0.647	0.85
Clc1ccc(COC(Cn2ccnc2)c2ccc(Cl)cc2Cl)cc1 (configuration not stated) [Econazole]	< 0.0301	< 0.0301	0.439		0.0776	< 0.0301	0.202	0.138	< 0.0301	0.0311	0.277	< 0.0301	< 0.0301	0.173	0.499
Sc1ncnc2nc[nH]c12 [6-mercaptopurine]	< 0.0301	< 0.0301	0.0529	< 0.0301	< 0.0301	< 0.0301	< 0.0301	< 0.0301	< 0.0301	< 0.0301		< 0.0301	< 0.0301	0.44	0.588
C[C@]12O[C@H](C[C@]1(O)CO)n1c3ccccc3c3c4c(c5c6ccccc6n2c5c31)CNC4=O [Lestaurtinib]	0.235	0.125	0.813	0.23	0.096	0.211	0.191	0.261	0.533	0.654	0.124	0.232	0.622	0.363	0.929
C[C@H]1O[C@@H](O[C@H]2[C@@H](O)C[C@H](O[C@H]3[C@@H](O)C[C@H](O[C@H]4CC[C@@]5(C)[C@H](CC[C@@H]6[C@@H]5C[C@@H](O)[C@]5(C)[C@@H](C7=CC(=O)OC7)CC[C@]65O)C4)O[C@@H]3C)O[C@@H]2C)C[C@H](O)[C@@H]1O [Digoxin]	0.471	0.275	0.609	0.384	0.328	0.425	< 0.0301	0.363	0.493	0.348	< 0.0301	0.346	0.42	0.624	0.611
COc1c(C)c2c(c(O)c1C/C=C(\C)CCC(=O)O)C(=O)OC2 [Mycophenolic acid]	< 0.0301	< 0.0301			< 0.0301	0.0355	< 0.0301	< 0.0301	< 0.0301	< 0.0301		< 0.0301	0.0528	0.0922	< 0.0301
Cc1noc2c1-c1ccccc1C(c1ccc(Cl)cc1)=N[C@H]2CC(N)=O [CPI-0610]	0.18		0.34	0.191			0.0768		0.423	0.264	0.458	0.192	0.423	0.378	0.74
CCN(CC)CCN(Cc1ccc(-c2ccc(C(F)(F)F)cc2)cc1)C(=O)Cn1c(SCc2ccc(F)cc2)nc(=O)c2c1CCC2 [Darapladib]	0.137	0.134	0.625	0.154	0.137	0.117	0.502	0.241	0.124	0.111	0.104	0.143	0.123	0.211	0.947
CC12CCC(O)CC1CCC1C2CCC2(C)C(C3=CC(=O)OC3)CCC12O (configuration not stated) [Digitoxigenin]	0.279	0.208	0.658	0.324	0.26	0.391	< 0.0301	0.305	0.357	0.388	< 0.0301	0.27	0.373	0.601	0.713
